Laboratory results from patent US9363995B2, “Use of derivative compounds of 1,3-benzodioxole in insecticidal compositions” (ENDURA S.P.A., priority 2012, dated 2016).
Where two headings read alike, the source gives them in different places.

Columns and labels:
[1] = tested on: adult, female insects of the Musca domestica species; assay: whole plant or invertebrate; assay type: in vivo; conditions: for Mortality: compound 1.25% w/v + tetramethrin 0.25% w/v in acetone; for synergist activity in respect of the tetramethrin: summary of Table 1, comparison with PBO
Description: After having mixed the products of Examples 1-4 with tetramethrin in acetone respectively at a concentration of 1.25% for the products of examples 1-4 and of 0.25% for the tetramethrin, 0.5 μl of acetone solution was applied to adult, female insects of the Musca domestica species, on the rear part of the pectoral region. The insect was then transferred to a closed plastic container approximately 12 cm in diameter and 6 cm in height and left at 25° C. with supply of 5% sugar solution. After 24 hours the alive and dead flies were examined to determine the percentage mortality. The total number of flies per container was equal to 20 and the test was repeated three times. For comparison acetone solutions at the same concentrations as previously indicated for the compounds of examples 1-4 and for tetramethrin alone were prepared.
For comparison an acetone solution at an equal concentration of piperonyl butoxide and tetramethrin and an acetone solution at the same concentration of piperonyl butoxide alone were also prepared.

Blattella germanica = assay: Mortality test on beetles, treated glass plates with chloropyriphos or propoxur; assay type: in vivo; conditions: 24 hours exposure; for Mortalità 1gg: 1 day from application; for Mortalità 3gg: 3 days from application
Description: Solutions of products of examples 1 and 3 in acetone and, for comparison, of piperonyl butoxide, with the organic phosphorus compound chloropyriphos and with carbamate compound propoxur, were applied from a distance of 12 cm on glass plates (model Ostra, 15×15 cm=225 square cm) by means of a suitable glass sprayer so as to obtain an applied amount of organic phosphorous compound equal to 33 mg/square m and of carbamate equal to 500 mg/mq. The products of examples 1 e 3 and the comparison compound PBO were in a weight ratio of 5:1 w/w with respect to the organic phosphorous compound and to the carbamate.
In the same way acetone solutions of organic phosphorous compound and of carbamate compound were prepared so as to obtain an applied amount of organic phosphorous compound equal to 33 mg/square m and of carbamate compound equal to 500 mg/mq. After the application the plates were transferred to a closed test room under controlled temperature and humidity (24-25° C., RH 50-60%). Glass rings (h 5.5 cm×diameter 9.5 cm), having internal surface treated with talc and each one containing 5 beetles—Blattella germanica—were placed in the centre of the plates. They were evaluated each one after 1 day and three days from the application. For each day, the insects were maintained on the surface for 24 hours.

[2] = Musca domestica, compound alone 1.25% w/v in acetone, tetramethrin 0, 0.5 μl topical, after 24 hours, read-out: Mortality
[3] = product 165 mg/sm + chloropyriphos 33 mg/sm
[4] = product 2500 mg/sm + propoxur 500 mg/sm

SMILES: CC(C)=CC1C(C(=O)OCN2C(=O)C3=C(CCCC3)C2=O)C1(C)C (stereo not shown) [tetramethrin, reference compound]
- mortality at 0.25 % strength ([1]; Musca domestica, topical, 24 h): 20%

SMILES: CCCCCCCCCCc1cc2c(cc1COCCOCCOCCCC)OCO2 [Ex. 4, 5-[2-(2-Butoxyethoxy)-ethoxymethyl]-6-n-decyl-1,3-benzodioxole]
- mortality at 1.25 % strength [1, 2]: 0%
- Mortality ([1]; 0.5 μl topical, after 24 hours): 80%

SMILES: CNC(=O)Oc1ccccc1OC(C)C [Propoxur, propoxur, reference compound]
- Mortalità 1gg (Blattella germanica; propoxur alone 500 mg/sm): 20%
- Mortalità 3gg (Blattella germanica; propoxur alone 500 mg/sm): 31%

SMILES: CCCCOCCOCCOCc1cc2c(cc1CCCC)OCO2 [Ex. 2, 5-[2-(2-butoxyethoxy)-ethoxymethyl]-6-n-butyl-1,3-benzodioxole]
- mortality at 1.25 % strength [1, 2]: 0%
- Mortality ([1]; 0.5 μl topical, after 24 hours): 80%

SMILES: CCOP(=S)(OCC)Oc1nc(Cl)c(Cl)cc1Cl [Chloropyriphos, chloropyriphos, reference compound]
- Mortalità 1gg (Blattella germanica; chloropyriphos alone 33 mg/sm): 32%
- Mortalità 3gg (Blattella germanica; chloropyriphos alone 33 mg/sm): 48%

SMILES: CCCCCCCCc1cc2c(cc1COCCOCCOCCCC)OCO2 [Ex. 1, 5-[2-(2-butoxyethoxy)-ethoxymethyl]-6-n-octyl-1,3-benzodioxole]
- mortality at 1.25 % strength [1, 2]: 0%
- Mortality ([1]; 0.5 μl topical, after 24 hours): 100%
- synergist activity in respect of the tetramethrin [1]: most active as synergists
- Mortalità 1gg (Blattella germanica; [3]): 62%
- Mortalità 3gg (Blattella germanica; [3]): 85%
- Mortalità 1gg (Blattella germanica; [4]): 48%
- Mortalità 3gg (Blattella germanica; [4]): 60%

SMILES: CCCCCCc1cc2c(cc1COCCOCCOCCCC)OCO2 [Ex. 3, 5-[2-(2-Butoxy-ethoxy)-ethoxymethyl]-6-n-hexyl-1,3-benzodioxole]
- mortality at 1.25 % strength [1, 2]: 0%
- Mortality ([1]; 0.5 μl topical, after 24 hours): 100%
- synergist activity in respect of the tetramethrin [1]: most active as synergists
- Mortalità 1gg (Blattella germanica; [3]): 60%
- Mortalità 3gg (Blattella germanica; [3]): 80%
- Mortalità 1gg (Blattella germanica; [4]): 44%
- Mortalità 3gg (Blattella germanica; [4]): 56%

SMILES: CCCCOCCOCCOCc1cc2c(cc1CCC)OCO2 [PBO, 5-[2-(2-butoxyethoxy)-ethoxymethyl]6-propyl-1,3-benzodioxole, reference compound]
- mortality at 1.25 % strength ([1]; Musca domestica, topical, 24 h): 0%
- Mortalità 1gg (Blattella germanica; [3]): 45%
- Mortalità 3gg (Blattella germanica; [3]): 65%
- Mortalità 1gg (Blattella germanica; [4]): 35%
- Mortalità 3gg (Blattella germanica; [4]): 42%
